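Assay format: 96-well plates, 48-hour exposure. Abbreviation: GI50, concentration required for 50% inhibition of growth.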 Activity calls are given as the source filed them. No stated cut-off is given here; in the data, active = GI50 up to about 1.1 µM and inactive = higher.
Tests used:
Experiment in all cases: growth of human tumour cells (NCI), 48 h
[1] = system: UO-31
[2] = system: NCI-H522
[3] = system: U-251
[4] = system: HOP-62
[5] = system: NCI-H460
[6] = system: HT-29
[7] = system: M19-MEL
[8] = system: OVCAR-4
[9] = system: SNB-75
[10] = system: UACC-62
[11] = system: CCRF-CEM
[12] = system: RPMI-8226
[13] = system: SF-268
[14] = system: OVCAR-3
[15] = system: SF-295
[16] = system: SNB-19
[17] = system: K562
[18] = system: NCI-H23
[19] = system: KM12
[20] = system: HCT-116
[21] = system: UACC-257
[22] = system: HL-60
[23] = system: COLO 205
[24] = system: SR
[25] = system: RXF 393
[26] = system: SK-OV-3
[27] = system: SK-MEL-2
[28] = system: ACHN
[29] = system: SNB-78
[30] = system: DMS-114
[31] = system: KM-20L2
[32] = system: M14
[33] = system: LXFL 529
[34] = system: OVCAR-5
[35] = system: Malme-3M
[36] = system: SF-539
[37] = system: IGROV-1
[38] = system: HOP-92
[39] = system: SK-MEL-28
[40] = system: MDA-MB-435
[41] = system: CAKI-1
[42] = system: 786-0
[43] = system: HCT-15
[44] = system: SN12C
[45] = system: NCI/ADR-RES
[46] = system: HCC 2998
[47] = system: TK-10
[48] = system: MDA-N
[49] = system: OVCAR-8
[50] = system: MOLT-4
[51] = system: LOX IMVI
[52] = system: PC-3
[53] = system: Hs-578T
[54] = system: A549
[55] = system: T47D
[56] = system: SK-MEL-5
[57] = system: DU-145
[58] = system: SW-620
[59] = system: MCF7
[60] = system: EKVX
[61] = system: MDA-MB-231
[62] = system: A498
[63] = system: NCI-H226
[64] = system: BT-549

For `CCc1c(O)c(O)c(C(C)=O)c2c(O)c(-c3c(C)cc4c(CC)c(O)c(O)c(C(C)=O)c4c3O)c(C)cc12`, the GI50 [1] was 6.49 µM (inactive), the GI50 [2] was 2.92 µM (inactive) and the GI50 [3] was 8.77 µM (inactive). For the same molecule, the GI50 [4] was 13.7 µM (inactive), the GI50 [5] was 7.73 µM (inactive) and the GI50 [6] was 5.15 µM (inactive). The GI50 [7] was 11.2 µM (inactive), the GI50 [8] was 11.2 µM (inactive) and the GI50 [9] was 14.1 µM (inactive). For the same molecule, the GI50 [10] was 7.21 µM (inactive), the GI50 [11] was 2.7 µM (inactive) and the GI50 [12] was 3.97 µM (inactive). For the same molecule, the GI50 [13] was 11 µM (inactive), the GI50 [14] was 5.05 µM (inactive) and the GI50 [15] was 3.03 µM (inactive). For the same molecule, the GI50 [16] was 7.67 µM (inactive), the GI50 [17] was 2.62 µM (inactive) and the GI50 [18] was 2.82 µM (inactive). For the same molecule, the GI50 [19] was 3.74 µM (inactive), the GI50 [20] was 4.17 µM (inactive) and the GI50 [21] was 11.1 µM (inactive). For the same molecule, the GI50 [22] was 3.08 µM (inactive), the GI50 [23] was 6.79 µM (inactive) and the GI50 [24] was 38.3 µM (inactive). For the same molecule, the GI50 [25] was 6.85 µM (inactive), the GI50 [26] was > 10 µM (inactive) and the GI50 [27] was 7.53 µM (inactive). The GI50 [28] was 12 µM (inactive), the GI50 [29] was 2.9 µM (inactive) and the GI50 [30] was 5.35 µM (inactive). For the same molecule, the GI50 [31] was 4.69 µM (inactive), the GI50 [32] was 8.75 µM (inactive) and the GI50 [33] was 4.56 µM (inactive). The GI50 [34] was 18.9 µM (inactive), the GI50 [35] was 16.7 µM (inactive) and the GI50 [36] was 9.04 µM (inactive). For the same molecule, the GI50 [37] was 5.52 µM (inactive), the GI50 [38] was 2.78 µM (inactive) and the GI50 [39] was 10.9 µM (inactive).
`CC(C)NC(=O)OCc1c(COC(=O)NC(C)C)c(-c2cc[n+](COC(=O)C3CCCCC3)cc2)n2c1CCC2` was tested, and the GI50 [40] was > 100 µM (inactive), the GI50 [1] was > 100 µM (inactive) and the GI50 [2] was > 100 µM (inactive). For the same molecule, the GI50 [41] was 50 µM (inactive), the GI50 [3] was > 100 µM (inactive) and the GI50 [4] was > 100 µM (inactive). The GI50 [42] was > 100 µM (inactive), the GI50 [43] was > 100 µM and the GI50 [5] was 70 µM (inactive). The GI50 [6] was > 100 µM (inactive), the GI50 [44] was > 100 µM (inactive) and the GI50 [45] was > 100 µM (inactive). The GI50 [46] was > 100 µM (inactive), the GI50 [47] was > 100 µM (inactive) and the GI50 [8] was > 100 µM (inactive). The GI50 [48] was > 100 µM (inactive), the GI50 [9] was 43.4 µM (inactive) and the GI50 [10] was 99.8 µM (inactive). The GI50 [11] was 44.8 µM (inactive), the GI50 [12] was > 100 µM (inactive) and the GI50 [13] was 91.2 µM (inactive). The GI50 [14] was > 100 µM (inactive), the GI50 [49] was > 100 µM (inactive) and the GI50 [15] was > 100 µM (inactive). For the same molecule, the GI50 [16] was > 100 µM (inactive), the GI50 [17] was > 100 µM (inactive) and the GI50 [50] was 40.8 µM (inactive). The GI50 [18] was > 100 µM (inactive), the GI50 [51] was > 100 µM (inactive) and the GI50 [52] was > 100 µM (inactive). For the same molecule, the GI50 [19] was > 100 µM (inactive), the GI50 [20] was > 100 µM (inactive) and the GI50 [53] was > 100 µM (inactive). The GI50 [54] was > 100 µM (inactive), the GI50 [55] was > 100 µM (inactive) and the GI50 [21] was > 100 µM (inactive). The GI50 [22] was 32.4 µM (inactive), the GI50 [56] was > 100 µM (inactive) and the GI50 [57] was > 100 µM (inactive). For the same molecule, the GI50 [23] was > 100 µM (inactive), the GI50 [24] was 9.25 µM (inactive) and the GI50 [25] was > 100 µM (inactive). For the same molecule, the GI50 [26] was > 100 µM (inactive), the GI50 [27] was > 100 µM (inactive) and the GI50 [28] was 44.9 µM (inactive). For the same molecule, the GI50 [58] was > 100 µM (inactive), the GI50 [59] was 83.4 µM (inactive) and the GI50 [60] was > 100 µM (inactive). The GI50 [61] was > 100 µM (inactive), the GI50 [32] was > 100 µM (inactive) and the GI50 [34] was > 100 µM (inactive). The GI50 [35] was > 100 µM (inactive), the GI50 [36] was 21.9 µM (inactive) and the GI50 [37] was > 100 µM (inactive). For the same molecule, the GI50 [62] was > 100 µM (inactive), the GI50 [63] was > 100 µM (inactive) and the GI50 [38] was > 100 µM (inactive). The GI50 [64] was > 100 µM (inactive) and the GI50 [39] was > 100 µM (inactive).
